Test results as given in US8501752B2, “Methods for treating cancer and other pathological proliferating disorders by inhibiting mitosis using pyrrolo[2,3-d]pyrimidines” (Duquesne University of the Holy Ghost, priority 2005, dated 2013).
Entries after “also recorded” stand apart in the source; their conditions may differ. Like-named read-outs stand apart in the source and are kept apart here.

How the values were obtained:
[1] = test system: NCI 60 human tumor cell lines; test: NCI IVCLSP growth inhibition, whole panel (text summaries); assay type: cell-based; conditions: NCI 60 tumor panel
Experimental: FIG. 1 presents nine compounds that were tested using the National Cancer Institute (NCI) 60 human tumor cell lines. The cells lines, which represent leukemia, melanoma, and cancers of the lung, colon, brain, ovary, breast, prostate, and kidney, are listed in Table 1.
Compounds 1-9 were tested according to the NCI Developmental Therapeutics Program (DTP) In Vitro Cell Line Screening Project (IVCLSP). […] Methodology for testing under the IVCLSP is as follows: The human tumor cell lines of the cancer screening panel are grown in RPMI 1640 medium containing 5% fetal bovine serum and 2 mM L-glutamine. For a typical screening experiment, cells are inoculated into 96 well microtiter plates in 100 μL at plating densities ranging from 5,000 to 40,000 cells/well depending on the doubling time of individual cell lines. After cell inoculation, the microtiter plates are incubated at 37° C., 5% CO2, 95% air and 100% relative humidity for 24 h prior to addition of experimental drugs.
After 24 h, two plates of each cell line are fixed in situ with TCA, to represent a measurement of the cell population for each cell line at the time of drug addition (Tz). Experimental drugs are solubilized in dimethyl sulfoxide at 400-fold the desired final maximum test concentration and stored frozen prior to use. At the time of drug addition, an aliquot of frozen concentrate is thawed and diluted to twice the desired final maximum test concentration with complete medium containing 50 μg/ml gentamicin. Additional four, 10-fold or ½ log serial dilutions are made to provide a total of five drug concentrations plus control. Aliquots of 100 μl of these different drug dilutions are added to the appropriate microtiter wells already containing 100 μl of medium, resulting in the required final drug concentrations.
Following drug addition, the plates are incubated for an additional 48 h at 37° C., 5% CO2, 95% air, and 100% relative humidity. For adherent cells, the assay is terminated by the addition of cold TCA. Cells are fixed in situ by the gentle addition of 50 μl of cold 50% (w/v) TCA (final concentration, 10% TCA) and incubated for 60 minutes at 4° C. The supernatant is discarded, and the plates are washed five times with tap water and air dried. Sulforhodamine B (SRB) solution (100 μl) at 0.4% (w/v) in 1% acetic acid is added to each well, and plates are incubated for 10 minutes at room temperature. After staining, unbound dye is removed by washing five times with 1% acetic acid and the plates are air dried. Bound stain is subsequently solubilized with 10 mM trizma base, and the absorbance is read on an automated plate reader at a wavelength of 515 nm. For suspension cells, the methodology is the same except that the assay is terminated by fixing settled cells at the bottom of the wells by gently adding 50 μl of 80% TCA (final concentration, 16% TCA). Using the seven absorbance measurements [time zero, (Tz), control growth, (C), and test growth in the presence of drug at the five concentration levels (Ti)], the percentage growth is calculated at each of the drug concentrations levels. Percentage growth inhibition is calculated as: [(Ti−Tz)/(C−Tz)]×100 for concentrations for which Ti>/=Tz [(Ti−Tz)/Tz]×100 for concentrations for which Ti<Tz.
Three dose response parameters are calculated for each experimental agent. […] The drug concentration resulting in total growth inhibition (TGI) is calculated from Ti=Tz. […]

[2] = test system: T24 human bladder carcinoma cells; test: Cytotoxicity, T24 cells; assay type: cell-based; conditions: mean ± SEM for 3 experiments
P-glycoprotein = target: T1, P-glycoprotein (Homo sapiens, UniProt P08183); test: P-glycoprotein antagonism: sensitivity of NCI/ADR cells to vinblastine; assay type: cell-based; conditions: absence or presence of 50 nM vinblastine
T1 construct: NCI/ADR cells that overexpress P-glycoprotein; endogenous in cells; host or cells: NCI/ADR cells
From the text: To determine if this is due to inhibition of drug transport activity by these proteins, the effects of these compounds on P-glycoprotein were further characterized. The effects of the compounds on the sensitivity of NCI/ADR cells to vinblastine and of MCF-7/VP cells to vincristine were examined to evaluate antagonism of P-glycoprotein and MRP1, respectively. FIGS. 4a-b present graphs of antagonism score versus concentration for P-glycoprotein and MRP1, respectively.
The Pgp antagonism score is calculated as the percentage survival of cells in the absence of vinblastine/percentage survival in the presence of vinblastine. […] The MRP1 antagonism score is calculated as the percentage survival of cells in the absence of vincristine/percentage survival in the presence of vincristine. […] Concentrations of Compounds 1-5 above their IC50 toward MCF-7 cells are not indicated. Data for one of three similar experiments is shown.

MCF-7 cells = test: Cytotoxicity, drug-sensitive MCF-7 cells
From the text: (§2) These cell lines are resistant to anticancer drugs due to overexpression of the transport proteins P-glycoprotein or MRP1.

MCF-7/VP cells = test: Cytotoxicity, MCF-7/VP cells that overexpress MRP1; conditions: for Resistance (MCF-7/VP relative to MCF-7): MRP1
From the text: as §2

NCI/ADR cells = test: Cytotoxicity, NCI/ADR cells that overexpress P-glycoprotein; conditions: for Resistance (NCI/ADR relative to MCF-7): P-glycoprotein
From the text: as §2

[3] = test system: A-10 rat smooth muscle cells; test: Microtubule structure, indirect immunofluorescence, A-10 cells; assay type: cell-based; conditions: 24 hours; 625 nM TAXOL, 167 nM vinblastine, 900 nM Compound 1
Experimental: Because of the morphological effects of Compound 1 on cultured cells and the NCI COMPARE analysis results described above, the effects of vinblastine, TAXOL (paclitaxel), and Compound 1 on microtubule structure were examined. For these studies, A-10 rat smooth muscle cells were used since they grow as flat monolayers that are amenable to imaging. The A-10 cells were treated for 24 hours with EtOH (control), 625 nM TAXOL (paclitaxel), 167 nM vinblastine, and 900 nM of Compound 1. Microtubules were then visualized by indirect immunofluoresence staining with B-tubulin antibodies. FIGS. 2a-d present representative fields for the control, TAXOL (paclitaxel), vinblastine, and Compound 1 (“149”), respectively. None of these compounds affected the morphology of stress fibers composed of microfilaments.

[4] = test system: HL-60 human promyelocytic leukemia cells; test: Flow cytometric cell cycle phase distribution; assay type: cell-based; conditions: 24 hours treatment; for increase of the percentage of cells in the G2/M phases: HL-60; for cell cycle distribution, G2/M / cell cycle distribution, G9/G1 / cell cycle distribution, S: percentage of HL-60 cells
Experimental: Flow cytometric analyses were used to assess the effects of Compound 1 and various antimicrotubule drugs on the cell cycle phase distributions of HL-60 human promyelocytic leukemia cells. The percentage of cells in the G2/M phases were increased approximately 2-fold by treatment of the cells for 24 hours with either TAXOL (paclitaxel), vinblastine, colchicine, or Compound 1.

p53 = test: Western blot, p53 expression in MCF-7 cells; assay type: cell-based, human; conditions: 24 hours, various concentrations
Experimental: (§1) To further characterize the cell cycle effects of Compound 1 on human tumor cells, MCF-7 cells were treated for 24 hours with various concentrations of Compound 1, vinblastine, or TAXOL (paclitaxel). Cells were then harvested, lysed, and analyzed for levels of expression of p53 and WAF1 by Western Blot analyses. […] Compound 1 is identified as “149” in these figures. […] None of these treatments affected the expression of bcl-2 or P-tubulin in the MCF-7 cells.

WAF1 = test: Western blot, WAF1 expression in MCF-7 cells; assay type: cell-based, human; conditions: 24 hours, various concentrations
Experimental: as §1

[5] = test system: T24, MCF-7, NCI/ADR, MCF-7/VP; test: Cytotoxicity, panel of human tumor cell lines of Table 3 (text summaries)
From the text: as §2

[6] = Homo sapiens, MCF7, read-out: drug sensitivity (IC50), MCF-7
[7] = Homo sapiens, MCF7-VP, read-out: drug sensitivity (IC50), MCF-7/VP
[8] = Homo sapiens, NCI/ADR-RES, read-out: drug sensitivity (IC50), NCI/ADR

T1 sequence (P08183 whole entry): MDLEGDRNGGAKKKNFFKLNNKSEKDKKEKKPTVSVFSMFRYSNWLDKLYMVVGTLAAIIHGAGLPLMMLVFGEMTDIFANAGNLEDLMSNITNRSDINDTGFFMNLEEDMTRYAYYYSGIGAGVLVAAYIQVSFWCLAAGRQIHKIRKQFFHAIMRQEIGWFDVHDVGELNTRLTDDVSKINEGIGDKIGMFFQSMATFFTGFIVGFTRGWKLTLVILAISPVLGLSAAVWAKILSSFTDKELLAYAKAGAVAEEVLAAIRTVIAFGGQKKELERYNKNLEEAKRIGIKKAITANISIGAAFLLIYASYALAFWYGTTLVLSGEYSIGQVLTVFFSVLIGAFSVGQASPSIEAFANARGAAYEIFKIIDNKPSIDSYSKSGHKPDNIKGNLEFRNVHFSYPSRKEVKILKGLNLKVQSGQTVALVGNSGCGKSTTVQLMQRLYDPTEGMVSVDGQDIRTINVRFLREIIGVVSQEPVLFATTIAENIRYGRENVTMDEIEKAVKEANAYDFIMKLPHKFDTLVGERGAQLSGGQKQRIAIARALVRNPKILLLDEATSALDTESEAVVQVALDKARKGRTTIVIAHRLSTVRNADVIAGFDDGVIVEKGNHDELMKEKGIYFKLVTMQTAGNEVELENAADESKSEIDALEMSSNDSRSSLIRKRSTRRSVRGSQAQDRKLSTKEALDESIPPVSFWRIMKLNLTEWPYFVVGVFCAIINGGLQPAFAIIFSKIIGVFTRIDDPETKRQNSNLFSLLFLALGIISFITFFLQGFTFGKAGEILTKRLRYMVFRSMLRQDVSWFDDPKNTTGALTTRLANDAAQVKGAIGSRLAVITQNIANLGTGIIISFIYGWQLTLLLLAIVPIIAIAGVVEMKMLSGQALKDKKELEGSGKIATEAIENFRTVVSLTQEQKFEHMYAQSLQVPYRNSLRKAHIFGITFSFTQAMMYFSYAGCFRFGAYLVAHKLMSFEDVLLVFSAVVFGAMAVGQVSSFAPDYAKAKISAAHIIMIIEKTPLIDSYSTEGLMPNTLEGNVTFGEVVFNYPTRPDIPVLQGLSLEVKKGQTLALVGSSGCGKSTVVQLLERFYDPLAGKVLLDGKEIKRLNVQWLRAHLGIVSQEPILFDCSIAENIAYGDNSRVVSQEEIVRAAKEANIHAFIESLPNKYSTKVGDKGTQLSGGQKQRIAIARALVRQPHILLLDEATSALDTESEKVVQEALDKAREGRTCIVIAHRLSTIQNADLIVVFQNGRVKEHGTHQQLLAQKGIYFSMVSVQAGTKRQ

Row | Compound | GI50 values, level across the tumor cell lines (in words) [1] | IC50 [2] | effect on P-glycoprotein-mediated resistance (in words) (P-glycoprotein) | IC50 (MCF-7 cells; read-out: Cytotoxicity IC50, MCF-7, mean ± SEM for 3 experiments) | IC50 (MCF-7/VP cells; read-out: Cytotoxicity IC50, MCF-7/VP, mean ± SEM for 3 experiments) | IC50 (NCI/ADR cells; read-out: Cytotoxicity IC50, NCI/ADR, mean ± SEM for 3 experiments) | effect on microtubule structure (in words) [3] | increase of the percentage of cells in the G2/M phases [4] | cell cycle distribution, G2/M [4] | cell cycle distribution, G9/G1 [4] | cell cycle distribution, S [4] | level of expression of p53 (in words) (p53) | level of expression of WAF1 (in words) (WAF1) | IC50 (MCF-7 cells; [6]) | IC50 (MCF-7/VP cells; [7]) | Resistance (MCF-7/VP relative to MCF-7) (MCF-7/VP cells) | IC50 (NCI/ADR cells; [8]) | Resistance (NCI/ADR relative to MCF-7) (NCI/ADR cells) | effect of P-glycoprotein / MRP1 overexpression on cell sensitivity (in words) [5]
1 | Cc1nc(N)nc2c1c(CCc1ccccc1)cn2Cc1ccccc1 [Compound 5] | millimolar or less range for 52 of the tumor cell lines; also recorded: micromolar GI50 values for three of the tumor cell lines | 12700 ± 2300 nM | dose-dependent sensitization | 10700 ± 4700 nM | 118000 ± 6000 nM | 18200 ± 7400 nM |  |  |  |  |  |  |  |  |  |  |  |  | 
2 | CC(=O)O[C@H]1C(=O)[C@@]2(C)[C@H]([C@H](OC(=O)c3ccccc3)[C@]3(O)C[C@H](OC(=O)[C@H](O)[C@@H](NC(=O)c4ccccc4)c4ccccc4)C(C)=C1C3(C)C)[C@]1(OC(C)=O)CO[C@@H]1C[C@@H]2O [TAXOL (paclitaxel), paclitaxel] |  |  |  |  |  |  | promoted increased staining of microtubule clusters | approximately 2 fold | 10.5 ± 0.1 | 67.3 ± 0.4 | 22.2 ± 0.4 | marked increases | marked increases | 2.5 ± 0.6 nM | 2.8 ± 0.6 nM | 1.1 | 2700 ± 500 nM | 1080 | 
3 | CC[C@]1(O)C[C@@H]2CN(CCc3c([nH]c4ccccc34)[C@@](C(=O)OC)(c3cc4c(cc3OC)N(C)[C@H]3[C@@](O)(C(=O)OC)[C@H](OC(C)=O)[C@]5(CC)C=CCN6CC[C@]43[C@@H]65)C2)C1 [Vinblastine, vinblastine] |  |  |  |  |  |  | caused marked depletion of cellular microtubules | approximately 2 fold | 10.1 ± 0.3 | 83.3 ± 1.3 | 6.6 ± 1.6 | marked increases | marked increases | 2.8 ± 0.5 nM | 3 ± 0.6 nM | 1.1 | > 375 nM | >134 | 
4 | CC[C@]1(O)C[C@H]2CN(CCc3c([nH]c4ccccc34)[C@@](C(=O)OC)(c3cc4c(cc3OC)N(C=O)[C@H]3[C@@](O)(C(=O)OC)[C@H](OC(C)=O)[C@]5(CC)C=CCN6CC[C@]43[C@@H]65)C2)C1 [Vincristine, vincristine, reference compound] |  |  |  |  |  |  |  |  |  |  |  |  |  | 0.6 ± 0.1 nM | 9.3 ± 1.4 nM | 15.5 | 100 nM | 167 | overexpression of MRP1 also confers substantial resistance
